The results in this text go back to article PMC2943038 (Chemical communications (Cambridge, England), 2010).

The structures appear in SMILES notation. Where two headings read alike, the source gives them in different places. Some results are limits rather than exact numbers.

In test [1] the target is T1, PAD4 (Homo sapiens, UniProt Q9UM07). Description: PAD4 inhibition/inactivation, residual activity measured with BAEE. It counts as biochemical.
Test [2] has as its system HL-60 granulocytes. Kind of test: histone H3 citrullination Western blot in HL-60 granulocytes. Type of test: cell-based. The following applies: anti-citrulline histone H3 Western blot, 1, 10, or 100 nM, dose dependent. A general note: In western blotting, separated proteins are transferred to a membrane and probed.
Test [3] relates to MCF-7 cells. Description: histone H3 citrullination Western blot in MCF-7 cells. It counts as cell-based. Conditions: MCF7 cells; anti-citrulline histone H3 Western blot; 1, 10, or 100 nM, dose dependent.
Test [4] concerns the target T2, PAD2 (Homo sapiens, UniProt Q9Y2J8). Conditions: PAD4 over PAD2, relative values of kinact/KI.
Test [5] concerns the target T2, PAD2. Kind of test: biochemical.
Test [6] concerns the target T3, PAD3 (Homo sapiens, UniProt Q9ULW8).
T3 sequence (Q9ULW8 1-664): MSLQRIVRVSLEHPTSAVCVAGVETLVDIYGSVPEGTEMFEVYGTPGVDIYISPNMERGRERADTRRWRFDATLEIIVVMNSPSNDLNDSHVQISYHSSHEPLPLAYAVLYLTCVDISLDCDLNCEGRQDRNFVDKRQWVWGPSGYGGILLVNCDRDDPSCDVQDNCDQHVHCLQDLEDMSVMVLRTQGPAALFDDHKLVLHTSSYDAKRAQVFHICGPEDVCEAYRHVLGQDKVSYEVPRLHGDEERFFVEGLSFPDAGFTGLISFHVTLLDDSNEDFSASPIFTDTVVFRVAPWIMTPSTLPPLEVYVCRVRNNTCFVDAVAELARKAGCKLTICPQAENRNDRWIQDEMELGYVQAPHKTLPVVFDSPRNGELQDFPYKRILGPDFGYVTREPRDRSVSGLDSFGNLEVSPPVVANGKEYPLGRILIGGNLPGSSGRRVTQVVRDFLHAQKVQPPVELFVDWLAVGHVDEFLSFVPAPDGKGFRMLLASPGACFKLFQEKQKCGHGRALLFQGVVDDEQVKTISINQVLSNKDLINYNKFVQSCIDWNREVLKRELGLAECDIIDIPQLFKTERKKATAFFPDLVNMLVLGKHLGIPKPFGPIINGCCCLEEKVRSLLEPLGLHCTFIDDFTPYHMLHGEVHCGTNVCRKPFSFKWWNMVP
Description: biochemical.

Test [7] deals with T1, PAD4. Description: fluopol-ABPP HTS.
In test [8] the target is T1, PAD4. Kind of test: gel-based ABPP secondary screen.
The target in test [9] is T4, PAD1 (Homo sapiens, UniProt Q9ULC6).
T4 sequence (Q9ULC6 1-663): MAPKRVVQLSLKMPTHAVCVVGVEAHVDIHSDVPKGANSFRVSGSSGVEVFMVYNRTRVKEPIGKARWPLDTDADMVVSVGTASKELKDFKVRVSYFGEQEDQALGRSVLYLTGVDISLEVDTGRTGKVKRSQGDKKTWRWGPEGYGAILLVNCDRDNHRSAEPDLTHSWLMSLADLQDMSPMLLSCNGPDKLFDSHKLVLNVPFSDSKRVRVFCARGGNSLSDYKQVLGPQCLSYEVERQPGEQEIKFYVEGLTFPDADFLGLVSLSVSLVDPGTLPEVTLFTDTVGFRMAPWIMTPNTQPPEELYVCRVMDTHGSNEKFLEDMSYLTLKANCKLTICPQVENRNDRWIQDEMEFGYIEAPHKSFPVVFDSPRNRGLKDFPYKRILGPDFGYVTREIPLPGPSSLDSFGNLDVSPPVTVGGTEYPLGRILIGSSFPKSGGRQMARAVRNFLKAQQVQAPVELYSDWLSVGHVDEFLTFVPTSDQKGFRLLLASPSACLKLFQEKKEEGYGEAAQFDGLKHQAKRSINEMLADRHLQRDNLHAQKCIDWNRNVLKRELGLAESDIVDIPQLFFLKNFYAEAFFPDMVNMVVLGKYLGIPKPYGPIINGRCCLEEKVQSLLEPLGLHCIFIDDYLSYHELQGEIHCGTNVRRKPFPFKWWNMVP
Kind of test: PAD1 inhibition/inactivation, residual activity measured with BAEE.

T1 sequence (Q9UM07 whole entry): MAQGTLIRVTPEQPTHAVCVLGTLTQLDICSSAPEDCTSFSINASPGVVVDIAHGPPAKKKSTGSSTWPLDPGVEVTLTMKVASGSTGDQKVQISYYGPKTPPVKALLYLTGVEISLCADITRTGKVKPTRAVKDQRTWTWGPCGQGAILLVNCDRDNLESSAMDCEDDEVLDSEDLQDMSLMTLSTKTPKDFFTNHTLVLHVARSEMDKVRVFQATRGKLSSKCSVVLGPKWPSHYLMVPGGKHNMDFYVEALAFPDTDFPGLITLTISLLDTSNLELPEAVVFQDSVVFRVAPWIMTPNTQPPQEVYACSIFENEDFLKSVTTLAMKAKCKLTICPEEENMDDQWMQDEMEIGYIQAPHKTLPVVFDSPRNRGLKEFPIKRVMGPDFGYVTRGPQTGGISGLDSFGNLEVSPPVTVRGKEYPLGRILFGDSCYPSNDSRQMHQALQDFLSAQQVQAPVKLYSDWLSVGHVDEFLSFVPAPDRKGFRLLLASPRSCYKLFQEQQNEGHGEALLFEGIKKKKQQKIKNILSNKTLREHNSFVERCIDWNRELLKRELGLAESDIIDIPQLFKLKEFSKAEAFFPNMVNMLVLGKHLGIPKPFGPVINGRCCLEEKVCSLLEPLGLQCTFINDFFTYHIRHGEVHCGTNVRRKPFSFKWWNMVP
T2 sequence (Q9Y2J8 whole entry): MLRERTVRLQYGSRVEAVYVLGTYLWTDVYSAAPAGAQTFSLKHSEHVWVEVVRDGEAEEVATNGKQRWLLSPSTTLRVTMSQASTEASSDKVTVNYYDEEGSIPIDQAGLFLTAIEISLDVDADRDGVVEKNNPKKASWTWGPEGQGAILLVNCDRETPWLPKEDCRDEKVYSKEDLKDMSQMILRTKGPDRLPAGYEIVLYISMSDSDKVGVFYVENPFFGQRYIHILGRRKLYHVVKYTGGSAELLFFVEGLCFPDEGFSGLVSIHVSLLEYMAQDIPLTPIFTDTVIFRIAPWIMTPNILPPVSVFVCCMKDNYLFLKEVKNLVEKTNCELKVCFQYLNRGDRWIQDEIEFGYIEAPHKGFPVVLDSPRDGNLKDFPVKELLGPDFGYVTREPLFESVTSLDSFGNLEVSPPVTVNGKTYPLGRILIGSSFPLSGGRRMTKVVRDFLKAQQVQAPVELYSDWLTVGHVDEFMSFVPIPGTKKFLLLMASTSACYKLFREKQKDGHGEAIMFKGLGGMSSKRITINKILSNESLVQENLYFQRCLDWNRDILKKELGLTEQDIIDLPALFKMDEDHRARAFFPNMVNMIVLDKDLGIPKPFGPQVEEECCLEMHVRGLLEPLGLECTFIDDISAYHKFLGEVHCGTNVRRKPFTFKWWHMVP

What is called IC50 is the concentration needed to halve the response being measured. The term inhibition denotes the percentage by which the read-out fell short of the control. In turn, `COC1=C(N)C(=O)c2nc(-c3nc(C(=O)O)c(C)c(-c4ccc(OC)c(OC)c4O)c3N)ccc2C1=O` [NIH6, streptonigrin] showed an IC50 in test [1] of 1.87 ± 0.24 µM. Also, the Ki in test [1] was 8.5 ± 4.3 µM; in test [5] it was 17 ± 5.8 µM; in test [6], 49 ± 34 µM; in [9], 11 ± 7 µM. Moreover, the “PAD4 activity recovered after dialysis (reversibility)” value in [1] (incubated with PAD4 for 30 min, dialyzed overnight (~20 h)) was “no PAD4 activity was recovered”. For the same compound, the “concentration that reduced levels of citrullinated histone H3” value in test [2] and in test [3] was not above 1 nM throughout. The Fold selectivity in test [4] came out at 37 fold. In addition, the inhibition at 5 µM in test [7] (read-out: % Inhibition (library screen)) was found to be 92.5%. Also, the inhibition at 10 µM in [8] (read-out: % Inhibition (Gel based ABPP)) amounted to 93.9%.
As to `Cc1ccc(S(=O)(=O)N[C@@H](Cc2ccccc2)C(=O)CCl)cc1` [NIH5, tosyl phenylalanyl chloromethyl ketone], the IC50 in test [1] (read-out: IC50 for PAD4, Table 1, hits of the HTS) is 13 ± 2 µM. Besides, the “% Inhibition (library screen)” value in test [7] (5 μM compound final, 2 μM PAD4, 75 nM RFA, 300 min) worked out at 39.7%. The “% Inhibition (Gel based ABPP)” value in test [8] (10 μM final, inhibition of RFA labeling of PAD4) is given as 12.9%.
